# Results published in US5856439A, “Farnesyl transferase inhibitors, preparation thereof, and pharmaceutical compositions containing same” (Rhone-Poulenc Rorer S.A., priority 1995, dated 1999).
# Biological target: T1, human farnesyl transferase purified from THP1 cell cultures (Homo sapiens, UniProt P49354+P49356)
# T1 construct: human farnesyl transferase purified from THP1 cell cultures; endogenous in cells; host or cells: THP1 cell cultures (enzyme purified from them)
# Assay: Farnesyl transferase inhibition: [3H]farnesyl transfer from [3H]FPP to p21 H-ras
# Assay type: biochemical
# Conditions: 20 minutes at 37° C., 9 concentrations, each test repeated 3 times, read-out: Inhibitory activity IC50
# Protocol: Farnesyl transferase activity is determined by the quantity of [^3 H]farnesyl transferred from [^3 H]farnesyl pyrophosphate [[^3 H]FPP) to the p21 H-ras protein. The standard reaction mixture is composed, for a final volume of 60 μl, of 50 mM Tris-HCl, 5 mM MgCl2, 5 mM dithiotreitol, 0.2% octyl β-D-glucopyranoside, 200 picomol p21 H-ras, 4.5 picomol [^3 H]FPP (activity 61000 dpm/picomol).
# Reaction is initiated by adding approximately 5 ng of human farnesyl transferase purified from THP1 cell cultures. After incubation for 20 minutes at 37° C. in a microtitration plate containing 96 1-cm^3 wells per plate (Titer Plate®, Beckman), the reaction is stopped by adding 0.4 cm^3 of 0.1% SDS in methanol at 0° C. The mixture is then treated with 0.4 cm^3 of 30% trichloroacetic acid® (TCA) in methanol. The plates are left in ice for 1 hour. […] The membranes are dried in a microwave oven, then impregnated with scintillation medium by melting Meltilex® (Pharmacia) under hot air, and lastly counted in cpm in a β-Plate® counter (LKB). […]
# The percentage inhibition values are obtained by comparison of the tests with and without inhibitor after deduction of blanks, the IC50 values being measured on the basis of the inhibitions obtained with 9 different concentrations using Enzfitter® or Grafit® software.
row,IC50 [nM],Substance
1,15.5,Cys-(N-Me)Val-[cis-3-phenyl-DL-prolyl]-Met
2,920,Cys-(N-Me)Val-[trans-3-phenyl-DL-prolyl]-Met
